Experimental data published in patent publication US20070128217A1 (priority 2003, published 2007).

What was measured:
[1] = tested on: control sera (pooled serum of ten healthy LUMC hospital workers; commercial negative donor pooled serum from the Dutch bloodbank); assay type: binding, human; design: Binding of Control serum LUMC to linear peptides / Binding of Control serum Blood-bank to linear peptides / Binding of Control serum LUMC to looped peptides / Binding of Control Serum Blood-Bank to Looped peptides / Binding of Control serum LUMC to linear peptides of the protein M of SARS-CoV Urbani / Binding of Control serum Blood-bank to linear peptides of the protein M of SARS-CoV Urbani / Binding of Control serum LUMC to looped peptides of the protein M of SARS-CoV Urbani / Binding of Control Serum Blood-Bank to Looped peptides of the protein M of SARS-CoV Urbani: unit not given here
[2] = tested on: antibodies in sera from SARS patients (sera 1a, 1b, 2, 6, 37, 62, London, SARS-yellow, SARS-green); assay type: binding, human; design: Binding of serum 6 to linear peptides of protein X1 of SARS-CoV Urbani / Binding of serum 37 to linear peptides of protein X1 of SARS-CoV Urbani / Binding of serum 6 to looped/cyclic peptide (PEPSCAN-ELISA) / Binding of serum 37 to looped/cyclic peptide (PEPSCAN-ELISA) / Binding of serum 37 to looped/cyclic peptides of protein X1 of SARS-CoV Urbani / Binding of serum 6 to linear peptides of protein X2 / Binding of serum 37 to linear peptides of protein X2 / Binding of serum 37 to looped/cyclic peptides of protein X2 of SARS-CoV Urbani / Binding of serum 6 to linear peptides of protein M of SARS-CoV Urbani / Binding of serum 37 to linear peptides of protein M of SARS-CoV Urbani / Binding of serum 6 to looped/cyclic peptides of protein M of SARS-CoV Urbani / Binding of serum 37 to looped/cyclic peptides of protein M of SARS-CoV Urbani / Binding of serum 6 to linear peptides of protein X3 of SARS-CoV Urbani / Binding of serum 37 to linear peptides of protein X3 of SARS-CoV Urbani / Binding of serum 37 to looped/cyclic peptides of protein X3 of SARS-CoV Urbani / Binding of serum 6 to linear peptides of protein X4 of SARS-CoV Urbani / Binding of serum 37 to linear peptides of protein X4 of SARS-CoV Urbani / Binding of serum 37 to looped/cyclic peptides of protein X4 of SARS-CoV Urbani / Binding of serum 6 to linear peptides of protein X5 of SARS-CoV Urbani / Binding of serum 37 to linear peptides of protein X5 of SARS-CoV Urbani / Binding of serum 37 to looped/cyclic peptides of protein X5 of SARS-CoV Urbani / Binding of serum 6 to linear peptides of protein N of SARS-CoV Urbani / Binding of serum 37 to linear peptides of protein N of SARS-CoV Urbani / Binding of serum 6 to linear peptide (PEPSCAN-ELISA) / Binding of serum 1a to looped/cyclic peptides of protein N of SARS-CoV Urbani / Binding of serum 1b to looped/cyclic peptides of protein N of SARS-CoV Urbani / Binding of serum 2 to looped/cyclic peptides of protein N of SARS-CoV Urbani / Binding of serum 6 to looped/cyclic peptides of protein N of SARS-CoV Urbani / Binding of serum 37 to looped/cyclic peptides of protein N of SARS-CoV Urbani / Binding of serum 62 to looped/cyclic peptides of protein N of SARS-CoV Urbani / Binding of serum London to looped/cyclic peptides of protein N of SARS-CoV Urbani / Binding of serum SARS-green to looped/cyclic peptides of protein N of SARS-CoV Urbani: unit not given here
[3] = tested on: rabbit serum obtained by immunizing a rabbit with the SARS-CoV strain Frankfurt 1; assay type: binding; design: Binding of a rabbit serum to linear peptides / Binding of a rabbit serum to looped peptides / Rabbit serum linear peptides / Rabbit serum looped peptides / Binding of a rabbit serum to linear peptides of protein N of SARS-CoV Urbani (Rabbit serum linear peptides) / Binding of a rabbit serum to looped/cyclic peptides of protein N of SARS-CoV Urbani (Rabbit serum looped peptides): unit not given here

Sequence: LWLLWPVTLACFVLA
- Binding of Control Serum Blood-Bank to Looped peptides of the protein M of SARS-CoV Urbani [1]: 0.5
- Binding of Control serum Blood-bank to linear peptides of the protein M of SARS-CoV Urbani [1]: 0.5
- Binding of Control serum LUMC to linear peptides of the protein M of SARS-CoV Urbani [1]: 0.5
- Binding of Control serum LUMC to looped peptides of the protein M of SARS-CoV Urbani [1]: 0.6
- Binding of serum 1a to linear peptides of protein M of SARS-CoV Urbani [2]: 0.7
- Binding of serum 1a to looped/cyclic peptides of protein M of SARS-CoV Urbani [2]: 0.7
- Binding of serum 1b to linear peptides of protein M of SARS-CoV Urbani [2]: 0.6
- Binding of serum 1b to looped/cyclic peptides of protein M of SARS-CoV Urbani [2]: 0.4
- Binding of serum 2 to linear peptides of protein M of SARS-CoV Urbani [2]: 0.4
- Binding of serum 2 to looped/cyclic peptides of protein M of SARS-CoV Urbani [2]: 0.6
- Binding of serum 6 to linear peptides of protein M of SARS-CoV Urbani [2]: 0.5
- Binding of serum 6 to looped/cyclic peptides of protein M of SARS-CoV Urbani [2]: 0.5
- Binding of serum 37 to linear peptides of protein M of SARS-CoV Urbani [2]: 0.4
- Binding of serum 37 to looped/cyclic peptides of protein M of SARS-CoV Urbani [2]: 0.7
- Binding of serum 62 to linear peptides of protein M of SARS-CoV Urbani [2]: 0.4
- Binding of serum 62 to looped/cyclic peptides of protein M of SARS-CoV Urbani [2]: 0.6
- Binding of serum London to linear peptides of protein M of SARS-CoV Urbani [2]: 0.4
- Binding of serum London to looped/cyclic peptides of protein M of SARS-CoV Urbani [2]: 0.2
- Binding of serum SARS-green to linear peptides of protein M of SARS-CoV Urbani [2]: 0.4
- Binding of serum SARS-green to looped/cyclic peptides of protein M of SARS-CoV Urbani [2]: 0.2
- Binding of serum SARS-yellow to linear peptides of protein M of SARS-CoV Urbani [2]: 0.2
- Binding of serum SARS-yellow to looped/cyclic peptides of protein M of SARS-CoV Urbani [2]: 0.6
- Rabbit serum linear peptides [3]: 0.1
- Rabbit serum looped peptides [3]: 0.4

Sequence: ATSRTLSYYKLGASQ
- Binding of Control Serum Blood-Bank to Looped peptides of the protein M of SARS-CoV Urbani [1]: 0.6
- Binding of Control serum Blood-bank to linear peptides of the protein M of SARS-CoV Urbani [1]: 0.7
- Binding of Control serum LUMC to linear peptides of the protein M of SARS-CoV Urbani [1]: 0.3
- Binding of Control serum LUMC to looped peptides of the protein M of SARS-CoV Urbani [1]: 0.6
- Binding of serum 1a to linear peptides of protein M of SARS-CoV Urbani [2]: 0.7
- Binding of serum 1a to looped/cyclic peptides of protein M of SARS-CoV Urbani [2]: 0.8
- Binding of serum 1b to linear peptides of protein M of SARS-CoV Urbani [2]: 0.5
- Binding of serum 1b to looped/cyclic peptides of protein M of SARS-CoV Urbani [2]: 0.2
- Binding of serum 2 to linear peptides of protein M of SARS-CoV Urbani [2]: 0.7
- Binding of serum 2 to looped/cyclic peptides of protein M of SARS-CoV Urbani [2]: 0.6
- Binding of serum 6 to linear peptides of protein M of SARS-CoV Urbani [2]: 0.3
- Binding of serum 6 to looped/cyclic peptides of protein M of SARS-CoV Urbani [2]: 0.8
- Binding of serum 37 to linear peptides of protein M of SARS-CoV Urbani [2]: 0.8
- Binding of serum 37 to looped/cyclic peptides of protein M of SARS-CoV Urbani [2]: 0.6
- Binding of serum 62 to linear peptides of protein M of SARS-CoV Urbani [2]: 0.7
- Binding of serum 62 to looped/cyclic peptides of protein M of SARS-CoV Urbani [2]: 0.5
- Binding of serum London to linear peptides of protein M of SARS-CoV Urbani [2]: 0.3
- Binding of serum London to looped/cyclic peptides of protein M of SARS-CoV Urbani [2]: 0.3
- Binding of serum SARS-green to linear peptides of protein M of SARS-CoV Urbani [2]: 0.2
- Binding of serum SARS-green to looped/cyclic peptides of protein M of SARS-CoV Urbani [2]: 0.3
- Binding of serum SARS-yellow to linear peptides of protein M of SARS-CoV Urbani [2]: 0.1
- Binding of serum SARS-yellow to looped/cyclic peptides of protein M of SARS-CoV Urbani [2]: 0.7
- Rabbit serum linear peptides [3]: 0.6
- Rabbit serum looped peptides [3]: 0.4
